Experimental findings from patent US20250320213A1, “Nitrogen-Containing Heterocyclic Compounds” (Pfizer Inc., priority 2024, published 2025) are described below.

Each structure is given as a SMILES string.

The term EC50 denotes the concentration at which the effect is half-maximal. The IC50 is the point on the concentration scale where inhibition reaches its midpoint. Low readings indicate inhibition by little substance, high ones a need for much substance.

The target in one assay is T1, STAT6 (Homo sapiens, UniProt P42226).
T1 construct: stably transfected HaCaT keratinocyte cell line, which expresses NanoLuc luciferase reporter gene under the transcriptional control of the STAT6 responsive promoter; endogenous in cells; host or cells: HaCaT keratinocyte reporter cell line (stably transfected with a NanoLuc reporter)
T1 sequence (P42226 1-847): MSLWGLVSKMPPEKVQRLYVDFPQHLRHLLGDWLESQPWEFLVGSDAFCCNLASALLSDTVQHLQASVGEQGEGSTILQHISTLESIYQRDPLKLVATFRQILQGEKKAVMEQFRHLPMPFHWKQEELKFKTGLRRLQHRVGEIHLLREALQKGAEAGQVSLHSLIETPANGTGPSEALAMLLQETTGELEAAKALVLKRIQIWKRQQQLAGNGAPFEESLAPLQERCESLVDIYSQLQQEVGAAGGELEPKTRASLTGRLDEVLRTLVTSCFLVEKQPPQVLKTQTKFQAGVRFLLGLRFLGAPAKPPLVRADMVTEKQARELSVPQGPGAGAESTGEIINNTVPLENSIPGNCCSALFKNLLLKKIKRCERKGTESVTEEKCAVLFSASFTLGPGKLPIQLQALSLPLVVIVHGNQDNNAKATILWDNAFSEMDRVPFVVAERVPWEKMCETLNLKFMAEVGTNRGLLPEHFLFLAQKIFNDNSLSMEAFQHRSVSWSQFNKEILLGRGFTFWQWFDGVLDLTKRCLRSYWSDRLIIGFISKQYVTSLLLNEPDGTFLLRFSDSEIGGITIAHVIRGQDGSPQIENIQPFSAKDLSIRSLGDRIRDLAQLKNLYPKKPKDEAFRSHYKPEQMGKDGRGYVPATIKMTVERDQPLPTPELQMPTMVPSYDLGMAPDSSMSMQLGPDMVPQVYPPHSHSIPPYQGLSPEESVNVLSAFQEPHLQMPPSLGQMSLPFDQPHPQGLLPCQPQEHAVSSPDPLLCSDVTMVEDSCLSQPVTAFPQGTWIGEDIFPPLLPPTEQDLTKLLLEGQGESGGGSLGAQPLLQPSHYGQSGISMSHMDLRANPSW
Briefly: STAT6 Reporter Luciferase Assay (IL-13 stimulated HaCaT keratinocyte NanoLuc reporter cells). The class given is cell-based. Particulars: IL-13 stimulated HaCaT STAT6 NanoLuc reporter cells; read-out: Reporter EC50. In outline:
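Stably transfected HaCaT cells carrying NanoLuc under the STAT6-responsive IL-13Ra2 promoter were pre-treated with compound (11-point, 4-fold series, duplicate) for 2 h at 37 °C, then stimulated with 0.12 nM IL-13 for 4 h. Nano-Glo luminescence was read after 15 min.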

For assay [1], the system named is CCL17 secretion in peripheral human whole blood. Put plainly: Human Whole Blood (HWB) CCL17 TR-FRET Assay (IL-13 stimulated CCL17 secretion). Format: cell-based. Particulars: Homo sapiens, 48 h, human whole blood, 10 ng/mL IL13, 48 hours. In short, it runs like this: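 Heparinized peripheral human whole blood was preincubated with compound (11-point, 3-fold series, duplicate) for 2 h at 37 °C, then stimulated with IL-13 at 10 ng/mL final for 48 h at 37 °C. Secreted CCL17 in the serum was quantified by TR-FRET sandwich immunoassay (665/615 nm ratio, 16 h RT); IC50 derived.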
(In TR-FRET formats the signal depends on donor and acceptor labels being close together.)

As for `CC(C)n1nc(C(=O)NCc2ccc(NC(=O)N3CCCN(C)CC3)c(F)c2)c2c1[C@@H](C)CN(c1ccc(C(=O)N(C)C)cn1)C2` [Example 607, (S)-5-(5-(dimethylcarbamoyl)pyridin-2-yl)-N-(3-fluoro-4-(4-methyl-1,4-diazepane-1-carboxamido)benzyl)-1-isopropyl-7-methyl-4,5,6,7-tetrahydro-1H-pyrazolo[4,3-c]pyridine-3-carboxamide], on STAT6, the EC50 stood at 2 nM. It took 21 nM to reach half-maximal inhibition in assay [1] (IC50).

As to `CC(C)n1nc(C(=O)NCc2ccc(NC(=O)N3CC4(CCN(C)CC4)C3)c(F)c2)c2c1[C@@H](C)CN(c1ccc(C(=O)N(C)C)cn1)C2` [Example 608, (S)-5-(5-(dimethylcarbamoyl)pyridin-2-yl)-N-(3-fluoro-4-(7-methyl-2,7-diazaspiro[3.5]nonane-2-carboxamido)benzyl)-1-isopropyl-7-methyl-4,5,6,7-tetrahydro-1H-pyrazolo[4,3-c]pyridine-3-carboxamide], the EC50 at STAT6 worked out at 1 nM. The IC50 in assay [1] stood at 16 nM.

As to `CC(C)n1nc(C(=O)NCc2ccc(NC(=O)N3CCN(C)CC3)cc2)c2c1[C@@H](C)CN(c1ccc(-n3ccccc3=O)cn1)C2` [Example 609, (S)-1-isopropyl-7-methyl-N-(4-(4-methylpiperazine-1-carboxamido)benzyl)-5-(2-oxo-2H-[1,3′-bipyridin]-6′-yl)-4,5,6,7-tetrahydro-1H-pyrazolo[4,3-c]pyridine-3-carboxamide], the EC50 on STAT6 was 1 nM. This compound showed an IC50 in assay [1] of 7 nM.

As to `CC(C)n1nc(C(=O)NCc2ccc(NC(=O)N3CCN(C)CC3)c(F)c2)c2c1[C@@H](C)CN(c1ccc(-n3ccccc3=O)cn1)C2` [Example 610, (S)-N-(3-fluoro-4-(4-methylpiperazine-1-carboxamido)benzyl)-1-isopropyl-7-methyl-5-(2-oxo-2H-[1,3′-bipyridin]-6′-yl)-4,5,6,7-tetrahydro-1H-pyrazolo[4,3-c]pyridine-3-carboxamide], the concentration giving a half-maximal response (EC50) on STAT6 was determined as 2 nM. In assay [1], half-maximal inhibition (IC50) was put at 17 nM.

Regarding `CC(C)n1nc(C(=O)NCc2ccc(NC(=O)N3CCN(C)CC3)cc2)c2c1[C@@H](C)CN(c1ccc(C(=O)N3Cc4cccnc4C3)cn1)C2` [Example 611, (S)-5-(5-(6,7-dihydro-5H-pyrrolo[3,4-b]pyridine-6-carbonyl)pyridin-2-yl)-1-isopropyl-7-methyl-N-(4-(4-methylpiperazine-1-carboxamido)benzyl)-4,5,6,7-tetrahydro-1H-pyrazolo[4,3-c]pyridine-3-carboxamide], the EC50 on STAT6 stood at 0.2 nM. The same compound gave an IC50 in assay [1] of 5 nM.

As for `CC(C)n1nc(C(=O)NCc2ccc(NC(=O)N3CCN(C)CC3)c(F)c2)c2c1[C@@H](C)CN(c1ccc(C(=O)N3Cc4cccnc4C3)cn1)C2` [Example 612, (S)-5-(5-(6,7-dihydro-5H-pyrrolo[3,4-b]pyridine-6-carbonyl)pyridin-2-yl)-N-(3-fluoro-4-(4-methylpiperazine-1-carboxamido)benzyl)-1-isopropyl-7-methyl-4,5,6,7-tetrahydro-1H-pyrazolo[4,3-c]pyridine-3-carboxamide], the EC50 on STAT6 amounted to 0.5 nM. Besides, in assay [1], the midpoint of inhibition, the IC50, lay at 10 nM.

Turning to `CC(C)n1nc(C(=O)NCc2ccc(NC(=O)N3CCN(C)CC3)cc2)c2c1[C@@H](C)CN(c1ccc(C(=O)N3Cc4cccnc4C3)cc1)C2` [Example 614, (S)-5-(4-(6,7-dihydro-5H-pyrrolo[3,4-b]pyridine-6-carbonyl)phenyl)-1-isopropyl-7-methyl-N-(4-(4-methylpiperazine-1-carboxamido)benzyl)-4,5,6,7-tetrahydro-1H-pyrazolo[4,3-c]pyridine-3-carboxamide], the EC50 on STAT6 amounted to 0.4 nM. Moreover, half-maximal inhibition in assay [1] (IC50) was put at 7 nM.

As for `CC(C)n1nc(C(=O)NCc2ccc(NC(=O)N3CCCN(C)CC3)cc2)c2c1[C@@H](C)CN(c1ccc(C(=O)N(C)C)cn1)C2` [Example 615, (S)-5-(5-(dimethylcarbamoyl)pyridin-2-yl)-1-isopropyl-7-methyl-N-(4-(4-methyl-1,4-diazepane-1-carboxamido)benzyl)-4,5,6,7-tetrahydro-1H-pyrazolo[4,3-c]pyridine-3-carboxamide], on STAT6, the EC50 stood at 2 nM. In assay [1], this compound showed an IC50 of 13 nM.

As for `CC(C)n1nc(C(=O)NCc2ccc(NC(=O)N3CCC(N(C)C)CC3)cc2)c2c1[C@@H](C)CN(c1ccc(C(=O)N(C)C)cn1)C2` [Example 616, (S)-N-(4-(4-(dimethylamino)piperidine-1-carboxamido)benzyl)-5-(5-(dimethylcarbamoyl)pyridin-2-yl)-1-isopropyl-7-methyl-4,5,6,7-tetrahydro-1H-pyrazolo[4,3-c]pyridine-3-carboxamide], on STAT6, the EC50 worked out at 1 nM. For the same compound, it took 6 nM to reach half-maximal inhibition in assay [1] (IC50).

Regarding `CC(C)n1nc(C(=O)NCc2ccc(C(=O)NCC3CCN(C)CC3)cc2)c2c1[C@@H](C)CN(c1ccc(C(=O)N(C)C)cc1)C2` [Example 617, (S)-5-(4-(dimethylcarbamoyl)phenyl)-1-isopropyl-7-methyl-N-(4-(((1-methylpiperidin-4-yl)methyl)carbamoyl)benzyl)-4,5,6,7-tetrahydro-1H-pyrazolo[4,3-c]pyridine-3-carboxamide], the EC50 on STAT6 was found to be 178 nM. In assay [1], this compound had an IC50 of 502 nM.

For the compound `CC(C)n1nc(C(=O)NCc2ccc(C(=O)NCC3CCN(C)CC3)cc2)c2c1[C@@H](C)CN(c1ccc(C(=O)N(C)C)cn1)C2` [Example 618, (S)-5-(5-(dimethylcarbamoyl)pyridin-2-yl)-1-isopropyl-7-methyl-N-(4-(((1-methylpiperidin-4-yl)methyl)carbamoyl)benzyl)-4,5,6,7-tetrahydro-1H-pyrazolo[4,3-c]pyridine-3-carboxamide], the EC50 at STAT6 is 127 nM. The same compound displayed an IC50 in assay [1] of 612 nM.

Turning to `CNC1CN(C(=O)Nc2ccc(CNC(=O)c3nn(C(C)C)c4c3CN(c3ccc(C(=O)N(C)C)cc3)C[C@@H]4C)cc2)C1` [Example 619, (S)-5-(4-(dimethylcarbamoyl)phenyl)-1-isopropyl-7-methyl-N-(4-(3-(methylamino)azetidine-1-carboxamido)benzyl)-4,5,6,7-tetrahydro-1H-pyrazolo[4,3-c]pyridine-3-carboxamide], the EC50 on STAT6 came to 3 nM. For the same compound, in assay [1], half-maximal inhibition (IC50) was put at 19 nM.

For the compound `CC(C)n1nc(C(=O)NCc2ccc(NC(=O)N3CCC(C4CCNCC4)CC3)cc2)c2c1[C@@H](C)CN(c1ccc(C(=O)N(C)C)cc1)C2` [Example 620, (S)-N-(4-([4,4′-bipiperidine]-1-carboxamido)benzyl)-5-(4-(dimethylcarbamoyl)phenyl)-1-isopropyl-7-methyl-4,5,6,7-tetrahydro-1H-pyrazolo[4,3-c]pyridine-3-carboxamide], the EC50 at STAT6 is 1 nM. Besides, in assay [1], the half-maximal inhibitory concentration (IC50) was found to be 8 nM.

Take `CC(C)n1nc(C(=O)NCc2ccc(NC(=O)N3CC4(CCN4)C3)cc2)c2c1[C@@H](C)CN(c1ccc(C(=O)N(C)C)cc1)C2` [Example 621, (S)-N-(4-(1,6-diazaspiro[3.3]heptane-6-carboxamido)benzyl)-5-(4-(dimethylcarbamoyl)phenyl)-1-isopropyl-7-methyl-4,5,6,7-tetrahydro-1H-pyrazolo[4,3-c]pyridine-3-carboxamide]: the EC50 on STAT6 is 7 nM. In assay [1], this compound showed a half-maximal inhibitory concentration (IC50) of 31 nM.

With `CC(C)n1nc(C(=O)NCc2ccc(NC(=O)N3CCC4(CCCNC4)CC3)cc2)c2c1[C@@H](C)CN(c1ccc(C(=O)N(C)C)cc1)C2` [Example 622, (S)-N-(4-((5-(4-(dimethylcarbamoyl)phenyl)-1-isopropyl-7-methyl-4,5,6,7-tetrahydro-1H-pyrazolo[4,3-c]pyridine-3-carboxamido)methyl)phenyl)-2,9-diazaspiro[5.5]undecane-9-carboxamide], the EC50 on STAT6 worked out at 4 nM. The compound further returned an IC50 in assay [1] of 16 nM.

In the case of `CC(C)n1nc(C(=O)NCc2ccc(NC(=O)N3CCC4(CC3)CNC4)cc2)c2c1[C@@H](C)CN(c1ccc(C(=O)N(C)C)cc1)C2` [Example 623, (S)-N-(4-(2,7-diazaspiro[3.5]nonane-7-carboxamido)benzyl)-5-(4-(dimethylcarbamoyl)phenyl)-1-isopropyl-7-methyl-4,5,6,7-tetrahydro-1H-pyrazolo[4,3-c]pyridine-3-carboxamide], at STAT6, the EC50 was determined as 13 nM. Inhibition in assay [1] was half-maximal at 37 nM (IC50).
